Legend:
[1] = biological target: D(2) dopamine receptor (Homo sapiens, UniProt P14416); test: Binding affinity for dopamine D2 receptor
[2] = biological target: T1, Alpha-1D adrenergic receptor (Homo sapiens, UniProt P25100); test: Binding affinity to human cloned adrenergic alpha-1d receptor
T1 sequence (P25100 whole entry): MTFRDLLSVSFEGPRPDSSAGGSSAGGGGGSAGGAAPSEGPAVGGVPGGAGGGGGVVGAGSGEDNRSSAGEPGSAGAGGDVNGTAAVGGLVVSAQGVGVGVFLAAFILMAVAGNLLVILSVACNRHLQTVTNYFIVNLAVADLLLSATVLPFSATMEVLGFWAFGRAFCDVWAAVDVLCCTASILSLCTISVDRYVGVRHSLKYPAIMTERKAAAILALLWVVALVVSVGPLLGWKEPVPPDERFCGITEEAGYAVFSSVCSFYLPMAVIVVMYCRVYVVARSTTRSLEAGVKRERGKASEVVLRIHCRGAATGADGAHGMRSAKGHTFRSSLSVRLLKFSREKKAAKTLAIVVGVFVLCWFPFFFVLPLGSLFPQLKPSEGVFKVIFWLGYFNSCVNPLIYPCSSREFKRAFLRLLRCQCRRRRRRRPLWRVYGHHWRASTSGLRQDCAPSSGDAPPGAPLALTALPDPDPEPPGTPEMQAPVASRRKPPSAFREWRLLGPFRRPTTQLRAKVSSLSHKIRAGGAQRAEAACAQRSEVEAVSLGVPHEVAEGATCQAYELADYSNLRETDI

[3] = biological target: T2, Alpha-1A adrenergic receptor (Homo sapiens, UniProt P35348); test: Binding affinity to human cloned adrenergic alpha-1a receptor
T2 sequence (P35348 whole entry): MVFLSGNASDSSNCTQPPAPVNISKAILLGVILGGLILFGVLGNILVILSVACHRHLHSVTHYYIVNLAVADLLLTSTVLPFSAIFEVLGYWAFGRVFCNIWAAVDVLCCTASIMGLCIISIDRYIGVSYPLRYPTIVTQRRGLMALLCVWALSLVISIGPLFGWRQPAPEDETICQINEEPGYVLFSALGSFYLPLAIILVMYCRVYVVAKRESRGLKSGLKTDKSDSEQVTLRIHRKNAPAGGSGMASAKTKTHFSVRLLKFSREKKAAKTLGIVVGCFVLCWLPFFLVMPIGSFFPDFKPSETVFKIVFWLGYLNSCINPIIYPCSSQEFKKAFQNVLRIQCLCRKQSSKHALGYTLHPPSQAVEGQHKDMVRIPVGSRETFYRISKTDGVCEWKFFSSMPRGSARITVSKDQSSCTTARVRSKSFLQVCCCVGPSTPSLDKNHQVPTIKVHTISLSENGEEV

[4] = biological target: T3, Alpha-1B adrenergic receptor (Homo sapiens, UniProt P35368); test: Binding affinity to human cloned adrenergic alpha-1b receptor
T3 sequence (P35368 whole entry): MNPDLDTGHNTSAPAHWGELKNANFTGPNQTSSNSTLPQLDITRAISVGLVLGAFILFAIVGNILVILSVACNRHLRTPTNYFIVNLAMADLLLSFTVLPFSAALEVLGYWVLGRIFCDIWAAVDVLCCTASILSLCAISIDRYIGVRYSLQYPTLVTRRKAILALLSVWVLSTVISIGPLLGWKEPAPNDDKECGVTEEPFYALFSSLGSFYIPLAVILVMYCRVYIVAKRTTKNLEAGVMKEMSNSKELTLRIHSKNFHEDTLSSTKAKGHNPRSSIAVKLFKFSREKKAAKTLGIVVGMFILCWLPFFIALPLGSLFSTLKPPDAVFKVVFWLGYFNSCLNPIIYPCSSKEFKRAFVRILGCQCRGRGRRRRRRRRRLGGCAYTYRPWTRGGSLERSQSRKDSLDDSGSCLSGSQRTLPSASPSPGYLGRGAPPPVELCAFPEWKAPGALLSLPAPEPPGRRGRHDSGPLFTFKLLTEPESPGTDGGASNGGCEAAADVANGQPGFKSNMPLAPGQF

D(2) dopamine receptor, sequence (P14416 whole entry): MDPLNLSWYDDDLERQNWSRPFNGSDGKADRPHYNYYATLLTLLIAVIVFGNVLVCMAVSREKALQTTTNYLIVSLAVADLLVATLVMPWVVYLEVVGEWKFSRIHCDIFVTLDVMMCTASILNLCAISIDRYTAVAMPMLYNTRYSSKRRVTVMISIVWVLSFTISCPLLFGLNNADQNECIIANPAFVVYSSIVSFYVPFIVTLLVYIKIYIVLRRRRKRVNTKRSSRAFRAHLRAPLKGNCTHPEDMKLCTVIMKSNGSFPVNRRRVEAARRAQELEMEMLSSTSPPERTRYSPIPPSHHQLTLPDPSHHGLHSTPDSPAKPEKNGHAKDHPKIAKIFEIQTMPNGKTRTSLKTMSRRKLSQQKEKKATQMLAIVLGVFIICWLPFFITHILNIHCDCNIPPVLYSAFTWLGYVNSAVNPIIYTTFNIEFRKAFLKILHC

Row | Compound | Ki [1] | Ki [2] | Ki [3] | Ki [4]
1 | COc1ccc(S(=O)(=O)N[C@H]2CC[C@@H](N3CCC(c4ccccc4OCC(F)F)CC3)CC2)cc1OC | 0.276 µM | – | – | –
2 | O=S(=O)(N[C@H]1CC[C@H](N2CCC(c3ccccc3OC3CC3)CC2)CC1)c1cc(Cl)ccc1F | 0.159 µM | – | – | –
3 | COc1ccc(S(=O)(=O)N[C@H]2CC[C@H](N3CCC(c4ccccc4OCC(F)(F)F)CC3)CC2)cc1OC | 0.083 µM | 0.023 µM | 0.021 µM | 0.368 µM
4 | O=S(=O)(N[C@H]1CC[C@@H](N2CCC(c3ccccc3OC3CC3)CC2)CC1)c1ccc2c(c1)OCO2 | 0.066 µM | – | 0.016 µM | –
5 | COc1ccc(Cl)cc1S(=O)(=O)N[C@H]1CC[C@@H](N2CCC(c3ccccc3OC3CC3)CC2)CC1 | 0.129 µM | – | – | –
6 | O=S(=O)(N[C@H]1CC[C@H](N2CCC(c3ccccc3OCC(F)(F)F)CC2)CC1)c1ccc2c(c1)OCCO2 | 0.023 µM | – | – | 0.091 µM
7 | COc1ccc(S(=O)(=O)N[C@H]2CC[C@@H](N3CCC(c4ccccc4OCCF)CC3)CC2)cc1OC | 0.201 µM | 0.0055 µM | 0.0085 µM | 0.401 µM
8 | O=S(=O)(N[C@H]1CC[C@@H](N2CCC(c3ccccc3OCC(F)(F)F)CC2)CC1)c1ccc2c(c1)OCCO2 | 0.057 µM | – | – | –
9 | O=S(=O)(N[C@H]1CC[C@@H](N2CCC(c3ccccc3OCC(F)(F)F)CC2)CC1)c1cc(Cl)ccc1F | 0.078 µM | – | 0.0059 µM | –
10 | CC(C)Oc1ccccc1C1CCN([C@H]2CC[C@H](NS(=O)(=O)c3ccc(F)c(F)c3)CC2)CC1 | 0.079 µM | 0.087 µM | 0.0014 µM | 1.39 µM
11 | COc1ccc(S(=O)(=O)N[C@H]2CC[C@H](N3CCC(c4ccccc4OCC(F)F)CC3)CC2)cc1OC | 0.088 µM | – | 0.031 µM | –
12 | COc1ccc(S(=O)(=O)N[C@H]2CC[C@H](N3CCC(c4ccccc4OC4CC4)CC3)CC2)cc1OC | 0.133 µM | 0.034 µM | 0.011 µM | –
13 | COc1ccc(S(=O)(=O)N[C@H]2CC[C@H](N3CCC(c4ccc(F)cc4OC(C)C)CC3)CC2)cc1OC | 0.104 µM | – | – | –
14 | COc1ccc(S(=O)(=O)N[C@H]2CC[C@@H](N3CCC(c4ccc(F)cc4OC(C)C)CC3)CC2)cc1OC | 0.106 µM | 0.012 µM | – | –
15 | COc1ccc(Cl)cc1S(=O)(=O)N[C@H]1CC[C@H](N2CCC(c3ccccc3OCC(F)(F)F)CC2)CC1 | 0.082 µM | – | 0.01 µM | –
16 | COc1ccc(S(=O)(=O)N[C@H]2CC[C@@H](N3CCC(c4ccccc4OC4CC4)CC3)CC2)cc1OC | 0.144 µM | – | – | –

Row | Compound | Ki [1] | Ki [2] | Ki [3] | Ki [4]
17 | COc1ccc(Cl)cc1S(=O)(=O)N[C@H]1CC[C@H](N2CCC(c3ccccc3OC3CC3)CC2)CC1 | 0.154 µM | – | – | –
18 | COc1ccc(S(=O)(=O)N[C@H]2CC[C@@H](N3CCC(c4cc(F)ccc4OC(C)C)CC3)CC2)cc1OC | 0.178 µM | – | – | –
19 | O=S(=O)(N[C@H]1CC[C@H](N2CCC(c3ccccc3OC3CC3)CC2)CC1)c1ccc2c(c1)OCO2 | 0.071 µM | – | – | –
20 | COc1ccc(S(=O)(=O)N[C@H]2CC[C@H](N3CCC(c4cc(F)ccc4OC(C)C)CC3)CC2)cc1OC | 0.094 µM | – | – | –
21 | O=S(=O)(N[C@H]1CC[C@@H](N2CCC(c3ccccc3OCC(F)(F)F)CC2)CC1)c1cccc(OC(F)F)c1 | 0.085 µM | – | – | –
22 | COc1ccc(S(=O)(=O)N[C@H]2CC[C@H](N3CCC(c4ccccc4OCCF)CC3)CC2)cc1OC | 0.284 µM | – | – | –
23 | COc1ccc(Cl)cc1S(=O)(=O)N[C@H]1CC[C@@H](N2CCC(c3ccccc3OCC(F)(F)F)CC2)CC1 | 0.069 µM | 0.0016 µM | – | –
24 | O=S(=O)(N[C@H]1CC[C@@H](N2CCC(c3ccccc3OC3CC3)CC2)CC1)c1cc(Cl)ccc1F | 0.187 µM | – | – | –
25 | O=S(=O)(N[C@H]1CC[C@H](N2CCC(c3ccccc3OCC(F)(F)F)CC2)CC1)c1ccc(OC(F)F)cc1 | 0.104 µM | – | 0.038 µM | –
26 | O=S(=O)(N[C@H]1CC[C@@H](N2CCC(c3ccccc3OCC(F)(F)F)CC2)CC1)c1ccc(OC(F)F)cc1 | 0.154 µM | – | – | –
27 | COc1ccc(S(=O)(=O)N[C@H]2CC[C@H](N3CCC(c4ccccc4OC(C)C)CC3)CC2)cc1OC | 0.055 µM | – | – | –
28 | O=S(=O)(N[C@H]1CC[C@H](N2CCC(c3ccccc3OCC(F)(F)F)CC2)CC1)c1cccc(OC(F)F)c1 | 0.129 µM | – | – | –
29 | COc1ccc(S(=O)(=O)N[C@H]2CC[C@@H](N3CCC(c4ccccc4OC(C)C)CC3)CC2)cc1OC | 0.144 µM | 0.00077 µM | 0.0022 µM | –
30 | COc1ccc(S(=O)(=O)N[C@H]2CC[C@@H](N3CCC(c4ccccc4OCC(F)(F)F)CC3)CC2)cc1OC | 0.111 µM | 0.0022 µM | 0.0018 µM | 0.123 µM
31 | O=S(=O)(N[C@H]1CC[C@H](N2CCC(c3ccccc3OCC(F)(F)F)CC2)CC1)c1cc(Cl)ccc1F | 0.037 µM | – | 0.0048 µM | –
32 | CC(C)Oc1ccccc1C1CCN([C@H]2CC[C@@H](NS(=O)(=O)c3ccc(F)c(F)c3)CC2)CC1 | 0.079 µM | – | – | –
